How the values were obtained:
Assay type in all cases: cell-based
[1] = system: Hep3B; assay: IC50 determination / cytotoxicity in human cell lines (Hep3B); details: Hep3B (liver; childhood HCC), 96 h; for % max. toxicity @ 50 μM2: 50 μM; for IC50: 10.000 cells per well, read-out: IC50 [μM] relative to untreated cells
Experimental: (§1) Anticancer activity of the dinucleotides, (formulated and administered in PBS solutions), was evaluated in vitro in various cancer cell lines, according to a commonly used procedures for assessment of compounds cytotoxicity, as out lined in the following publications: Mender, I., Gryaznov, S., Dikmen, Z. G., Wright, W. E., & Shay, J. W. (2015). Induction of telomere dysfunction mediated by the telomerase substrate precursor 6-thio-2′-deoxyguanosine. Cancer Discovery, 5, 82-95; Mender et al., (2020). Telomere Stress Potentiates STING-Dependent Anti-tumor Immunity. Cancer Cell, 38, 400-411.

[2] = system: HepG2; assay: IC50 determination / cytotoxicity in human cell lines (HepG2); details: HepG2 (liver; hepatoblastoma), 96 h; for % max. toxicity @ 50 μM3: 50 μM; for IC50: 10.000 cells per well, read-out: IC50 [μM] relative to untreated cells
Experimental: as §1

[3] = system: Panc-1; assay: IC50 determination / cytotoxicity in human cell lines (Panc-1); details: 96 h; for % max. toxicity @ 50 μM5: 50 μM; for IC50: 10.000 cells per well, read-out: IC50 [μM] relative to untreated cells
Experimental: as §1

[4] = system: NCI-H23; assay: IC50 determination / cytotoxicity in human cell lines (NCI-H23); details: NCI-H23 (lung; adenocarcinoma), 96 h; for % max. toxicity @ 50 μM4: 50 μM; for IC50: 10.000 cells per well, read-out: IC50 [μM] relative to untreated cells
Experimental: as §1

[5] = system: HEK293; assay: IC50 determination / cytotoxicity in human cell lines (HEK293); details: HEK293 (Kidney), 96 h; for IC50: 10.000 cells per well, 96 well plates, read-out: IC50 [μM] relative to untreated cells
Experimental: as §1

Which results are given for `Nc1nc2c(ncn2[C@H]2C[C@@H](O)[C@@H](COP(=O)(O)O[C@@H]3C[C@H](n4cnc5c(=S)[nH]c(N)nc54)O[C@@H]3CO)O2)c(=S)[nH]1` [Compound 1]?
% max. toxicity @ 50 μM2 [1]: 92%; IC50 [1]: 0.68 µM; % max. toxicity @ 50 μM3 [2]: 94%; IC50 [2]: 0.15 µM; % max. toxicity @ 50 μM5 [3]: 95%; IC50 [3]: 0.18 µM; % max. toxicity @ 50 μM4 [4]: 93%; IC50 [4]: 0.07 µM; % max. toxicity @ 50 μM [5]: 94%; IC50 [5]: 0.28 µM

`Nc1nc2c(ncn2[C@H]2C[C@@H](OP(=O)(O)OC[C@H]3O[C@@H](n4cc(F)c(=O)[nH]c4=O)C[C@H]3O)[C@@H](CO)O2)c(=S)[nH]1` [Compound 5] was tested. Which “% max. toxicity @ 50 μM2” value [1] did it give?
Its value is 87%.

What about the IC50 [1] of the same compound?
The IC50 was 0.09 µM.

What about the “% max. toxicity @ 50 μM3” value [2] of the same compound?
Its value is 92%.

What about the IC50 [2] of the same compound?
The IC50 was 0.04 µM.

What about the “% max. toxicity @ 50 μM5” value [3] of the same compound?
Its value is 96%.

And the IC50 [3]?
The IC50 was 0.25 µM.

And the “% max. toxicity @ 50 μM4” value [4]?
The value was 94%.

What about the IC50 [4] of the same compound?
Its IC50 is 0.01 µM.

What about the “% max. toxicity @ 50 μM” value [5] of the same compound?
Its value is 94%.

And the IC50 [5]?
Its IC50 is 0.02 µM.

`Nc1nc2c(ncn2[C@H]2C[C@@H](O)[C@@H](COP(=O)(O)O[C@@H]3C[C@H](n4cc(F)c(=O)[nH]c4=O)O[C@@H]3CO)O2)c(=S)[nH]1` [Compound 6] was tested. Which “% max. toxicity @ 50 μM2” value [1] did it give?
The value was 82%.

And the IC50 [1]?
Its IC50 is 0.06 µM.

And the “% max. toxicity @ 50 μM3” value [2]?
Its value is 89%.

And the IC50 [2]?
The IC50 was 0.06 µM.

What about the “% max. toxicity @ 50 μM5” value [3] of the same compound?
The value was 88%.

What about the IC50 [3] of the same compound?
The IC50 was 0.25 µM.

What about the “% max. toxicity @ 50 μM4” value [4] of the same compound?
The value was 92%.

And the IC50 [4]?
The IC50 was 0.02 µM.

And the “% max. toxicity @ 50 μM” value [5]?
Its value is 93%.

What about the IC50 [5] of the same compound?
Its IC50 is 0.01 µM.

`Nc1nc2c(ncn2[C@H]2C[C@@H](OP(O)(=S)OC[C@H]3O[C@@H](n4cc(F)c(=O)[nH]c4=O)C[C@H]3O)[C@@H](CO)O2)c(=S)[nH]1` (some centres unmarked) [Compound 11] was tested. Which “% max. toxicity @ 50 μM2” value [1] did it give?
Its value is 62%.

What about the IC50 [1] of the same compound?
The IC50 was 1.12 µM.

And the “% max. toxicity @ 50 μM3” value [2]?
The value was 71%.

And the IC50 [2]?
Its IC50 is 0.61 µM.

What about the “% max. toxicity @ 50 μM5” value [3] of the same compound?
The value was 80%.

And the IC50 [3]?
The IC50 was 5.12 µM.

What about the “% max. toxicity @ 50 μM4” value [4] of the same compound?
The value was 79%.

And the IC50 [4]?
The IC50 was 1.11 µM.

What about the “% max. toxicity @ 50 μM” value [5] of the same compound?
The value was 86%.

What about the IC50 [5] of the same compound?
The IC50 was 0.63 µM.

Which “% max. toxicity @ 50 μM2” value [1] does the source give for `Nc1nc2c(ncn2[C@H]2C[C@@H](O)[C@@H](COP(O)(=S)O[C@@H]3C[C@H](n4cc(F)c(=O)[nH]c4=O)O[C@@H]3CO)O2)c(=S)[nH]1` (some centres unmarked) [Compound-12] here?
Its value is 59%.

What about the IC50 [1] of the same compound?
The IC50 was 3.68 µM.

What about the “% max. toxicity @ 50 μM3” value [2] of the same compound?
Its value is 49%.

What about the IC50 [2] of the same compound?
Its IC50 is 1.15 µM.

And the “% max. toxicity @ 50 μM5” value [3]?
Its value is 48%.

What about the IC50 [3] of the same compound?
The IC50 was over 50 µM.

And the “% max. toxicity @ 50 μM4” value [4]?
The value was 81%.

What about the IC50 [4] of the same compound?
Its IC50 is 2.55 µM.

What about the “% max. toxicity @ 50 μM” value [5] of the same compound?
Its value is 86%.

And the IC50 [5]?
Its IC50 is 0.61 µM.
